Laboratory results reported in publication PMC12584836, “Rubus caesius leaves and stems in antiaging skin care products: antityrosinase, anticollagenase, antimicrobial activity, and transdermal distribution of main phenolic acids” (Pharmaceutical Biology, 2025).
In brackets after ≈: the same amount, converted by molar mass. Marks after values point to notes of the source that are not given here.

Experiments:
[1] = biological target: Collagenase from Clostridium histolyticum; assay: Collagenase inhibition assay (FALGPA substrate); type: biochemical
Procedure: Preparation of the extracts and calculation of IC50 values were carried out as described in the Antioxidant tests section. The effect of Rubus caesius extracts on collagenase and tyrosinase activity was estimated using the spectrophotometric method in a 96-well microplate reader (Epoch, BioTek System, Winooski, VT, USA).
The addition of the substrate started the reaction. Changes in absorbance were monitored every 20 s for a total of 20 min. The blank sample contained buffer, substrate, and the appropriate concentration of extract or standard. The negative control sample contained water instead of extract or standard. All tests were performed in triplicate and repeated three times (n = 9).
The effect of Rubus caesius extracts on collagenase activity was assessed based on the method described by Thring et al. ([2009]), with modifications introduced by Hering et al. ([2023]). FALGPA was used as the substrate, and oleanolic acid served as the positive control. Reaction mixtures containing the extract (0–400 µg/mL) were pre-incubated for 15 min. The reaction was initiated by the addition of 0.8 mM FALGPA, and absorbance was continuously measured at 335 nm. The reaction buffer was composed of tricine (50 mM, pH 7.5) with 400 mM NaCl and 10 mM CaCl2.

[2] = Skin permeation from hydrogels in Franz diffusion cells; type: in vitro ADME; settings: porcine skin
Procedure: Permeation experiments were conducted using Franz diffusion cells (Phoenix DB-6, ABL&E-JASCO, Wien, Austria), with a donor chamber area of 1 cm^2 and 10 mL acceptor chamber filled with phosphate-buffered saline (PBS, pH 7.4). The system was maintained at 37.0 ± 0.5 °C, and the acceptor solutions were continuously stirred.
Skin samples were wrapped in aluminum foil, frozen at −20 °C for no longer than three months. […] Skin impedance was measured by immersing the probe tips in the donor and acceptor chambers filled with PBS.
One gram of each hydrogel was applied to the donor chamber. All chambers were sealed with plastic stoppers to minimize evaporation. […] Phenolic acid concentrations were determined by HPLC.
J-shaped profiles and the following equations were used: (1) A=JSS(t−LT) where A is the cumulative amount permeated (μg·cm^−2) of tested phenolic acids permeating into the receptor compartment; JSS is the steady-state flux (μg·cm^−2·h^−1); t is the time (h), and LT is the lag time (h).
The steady-state flux was estimated from the slope of the linear portion of the plot of cumulative mass in the acceptor phase over time. The lag time (LT) was determined from the x-intercept of the linear portion of the plot of cumulative mass in the acceptor phase over time and was used to calculate the […] (KP) as follows: (2) KP=JSS/C where C is the concentration in the donor phase.

[3] = Skin accumulation after 24 h permeation; type: in vitro ADME; settings: after 24-h penetration; HL-E application; porcine skin
Procedure: Following incubation, samples were homogenized (IKA®T18 digital ULTRA TURRAX, Germany) for 3 min and centrifuged at 3500 rpm for 5 min. The resulting supernatants were analyzed by HPLC spectrophotometry, with methanol used as a blank. Accumulated phenolic acids were expressed as amount (µg) per gram of skin tissue (µg·g skin^−1).

[4] = ABTS radical scavenging assay; type: biochemical
Procedure: (§1) Water and ethanol extracts from Rubus caesius leaves and stems were freshly prepared by dissolving the dry extract in water. The samples were tested at concentrations ranging from 1 to 1000 µg/mL. Ascorbic acid was used as the reference standard in both assays. All measurements were performed using a 96-well microplate reader (Epoch, BioTek System, Winooski, VT, USA). IC50 values for each extract were calculated using the GraphPad Prism 9 software (version 9.0.0, GraphPad Software, San Diego, CA, USA). Each test was performed in triplicate and repeated three times (n = 9).
The antioxidant activity of the Rubus caesius extracts was determined using ABTS radical scavenging method as described by Thring et al. ([2009]), with minor modifications according to Hering et al. ([2025]). The reaction mixture containing extracts or standard were incubated in the dark for 20 min at 30 °C. After incubation, absorbance was measured at 750 nm. The negative control sample consisted of the reaction mixture and water instead of extract or standard.

[5] = Molybdenum reduction (phosphomolybdenum) assay; type: biochemical
Procedure: as §1
The total reducing power of water and ethanol extracts from Rubus caesius was estimated according to the phosphomolybdenum method described by Prieto et al. ([1999]), with modifications by Hering et al. ([2025]). The samples (extract or standard) were mixed with the reagent solution and incubated at 90 °C for 90 min. After cooling, 250 µL of each reaction mixture was transferred to a 96-well microplate reader (Epoch, BioTek System, Winooski, VT, USA), and absorbance was measured at 700 nm. The negative control consisted of the reaction mixture and water.

C. diphtheriae = assay: Antibacterial broth microdilution; type: cell-based; settings: Corynebacterium diphtheriae, standard
Procedure: (§2) Brain-heart infusion broth (BHI, Becton Dickinson) supplemented with 10% bovine serum was used for the cultivation of Streptococcus. […] Corynebacterium diphtheriae ZMF was cultured in Brain-heart infusion broth (BHI, Becton Dickinson) supplemented with 10% bovine serum under aerobic conditions at 37 °C for 72 h. Fungal strains-Candida albicans (ATCC10231), Candida albicans (ATCC26790), Candida [NT]200), Candida krusei (ATCC6258), Candida parapsilosis (ATCC22019) were grown in Sabourauda broth (SB, Becton Dickinson), under aerobic conditions at 37 °C for 72 h. For post-incubation viability assessment, BHI blood agar plates, MH agar plates, and Sabouraud agar plates were used. Active cultures were prepared by transferring cells from stock cultures into appropriate broth, as described above. […] Cultures were then diluted in the same broth to achieve an optical density corresponding to approximately 10^6 colony-forming units per milliliter (CFU/mL) for all bacteria strains except C. acnes and C. diphtheriae ZMF. […] [2014]). The minimum inhibitory concentration (MIC) was determined using the broth microdilution method in 96-well plates. Each well was filled with 100 μL of broth. […] These solutions were serially diluted and added to the first well of each row. Serial twofold dilutions were performed by transferring 100 μL from well to well up to the twelfth well, from which 100 μL was discarded. […] Ampicillin served as the reference standard, with concentrations ranging from 128 to 0.0625 μg/mL. Plates were incubated under the appropriate conditions at 37 °C for […] (Clostridium sp. was incubated anaerobically). MIC values were determined by visual observation and defined as the lowest extract concentration that prevented visible microbial growth. To determine the minimum bactericidal concentration (MBC), 100 μL from wells showing no visible growth were plated on agar media. […] The MBC was defined as the lowest concentration of extracts required to completely eliminate viable microorganisms (Hałasa et al. [2014]).

S. epidermidis ATCC14990 = assay: Antibacterial broth microdilution; type: cell-based; settings: Staphylococcus epidermidis, standard
Procedure: as §2

S. equinus ATCC15351 = assay: Antibacterial broth microdilution; type: cell-based; settings: Streptococcus equinus, standard
Procedure: as §2

[6] = test system: Streptococcus β hemolytic group G; assay: Antibacterial broth microdilution; type: cell-based; settings: S. β-hemolytic group G, standard
Procedure: as §2

C. acnes ATCC6919 = assay: Antibacterial broth microdilution; type: cell-based; settings: Cutibacterium acnes, standard
Procedure: as §2

M. catarrhalis PCM2340 = assay: Antibacterial broth microdilution; type: cell-based; settings: Moraxella catarrhalis, standard
Procedure: as §2

B. subtilis ATCC6633 = assay: Antibacterial broth microdilution; type: cell-based; settings: Bacillus subtilis, standard
Procedure: as §2

**Q.** Which “IC50 of collagenase inhibition” value [1] does the source give for `CC1(C)CC[C@]2(C(=O)O)CC[C@]3(C)C(=CC[C@@H]4[C@@]5(C)CC[C@H](O)C(C)(C)[C@@H]5CC[C@]43C)[C@@H]2C1` [oleanolic acid] here?
**A.** Its value is 31.72 ± 0.65 µg/mL.

**Q.** With `O=C(O)c1ccc(O)c(O)c1` [Protocatechuic acid, protocatechuic acid] as the compound, how does the “Phenolic acids concentration in the acceptor fluid (cumulative mass)” value (from here on “Phenolic acids concentration”) ([2]; from hydrogel HL-E, 2 h) read?
**A.** The value was 3.28 ± 0.31^a µg/cm^2.

**Q.** And the “Phenolic acids concentration” value ([2]; from hydrogel HL-E, 3 h)?
**A.** Its value is 5.86 ± 0.28^a µg/cm^2.

**Q.** And the “Phenolic acids concentration” value ([2]; from hydrogel HL-E, 5 h)?
**A.** The value was 8.59 ± 0.65^a µg/cm^2.

**Q.** What about the “Phenolic acids concentration” value ([2]; from hydrogel HL-E, 8 h) of the same compound?
**A.** The value was 11.94 ± 1.91^a µg/cm^2.

**Q.** And the “Phenolic acids concentration” value ([2]; from hydrogel HL-E, 24 h)?
**A.** The value was 37.95 ± 2.96^a µg/cm^2.

**Q.** And the “Phenolic acids concentration” value ([2]; from hydrogel HL-E, 24 h, listed as protocatechuic acid)?
**A.** The value was 37.95 ± 2.96 µg/cm^2.

**Q.** What about the “D·10^4, diffusion coefficient” value ([2]; from hydrogel HL-E) of the same compound?
**A.** The value was 6.57 ± 0.77 cm^2/h.

**Q.** What about the “JSS, steady-state flux” value ([2]; from hydrogel HL-E) of the same compound?
**A.** The value was 2.10 ± 0.17 µg/cm^2·h.

**Q.** What about the “LT, lag time” value ([2]; from hydrogel HL-E) of the same compound?
**A.** The value was 0.63 ± 0.08 h.

**Q.** And the “Q%24h, percentage of applied dose in acceptor phase after 24 h” value (shortened to “Q%24h, percentage of applied dose”) ([2]; from hydrogel HL-E)?
**A.** Its value is 4.49 ± 0.35%.

**Q.** And the “Q%24h, percentage of applied dose” value ([2]; from hydrogel HL-E, listed as protocatechuic acid)?
**A.** The value was 4.49%.

**Q.** And the “Phenolic acids concentration” value ([2]; from hydrogel HS-E, 5 h)?
**A.** Its value is 3.04 ± 0.03^a µg/cm^2.

**Q.** And the “Phenolic acids concentration” value ([2]; from hydrogel HS-E, 8 h)?
**A.** Its value is 3.84 ± 0.18^b µg/cm^2.

**Q.** What about the “Phenolic acids concentration” value ([2]; from hydrogel HS-E, 24 h) of the same compound?
**A.** The value was 4.57 ± 0.30^b µg/cm^2.

**Q.** And the “D·10^4, diffusion coefficient” value ([2]; from hydrogel HS-E)?
**A.** The value was 1.91 ± 0.09 cm^2/h.

**Q.** And the “JSS, steady-state flux” value ([2]; from hydrogel HS-E)?
**A.** Its value is 0.73 ± 0.04 µg/cm^2·h.

**Q.** What about the “LT, lag time” value ([2]; from hydrogel HS-E) of the same compound?
**A.** Its value is 2.19 ± 0.10 h.

**Q.** And the “Q%24h, percentage of applied dose” value ([2]; from hydrogel HS-E)?
**A.** The value was 2.45 ± 0.16%.

**Q.** And the “Accumulation of phenolic acid in the skin” value [3]?
**A.** The value was 61.46 ± 12.57 µg/g skin.

**Q.** Which “ABTS radical scavenging IC50” value [4] does the source give for `O=C1O[C@H]([C@@H](O)CO)C(O)=C1O` [Ascorbic acid, ascorbic acid] here?
**A.** The value was 14.77 ± 0.5 µg/mL.

**Q.** What about the “Molybdenum reduction IC50” value [5] of the same compound?
**A.** Its value is 78.25 ± 1.25 µg/mL.

**Q.** Which results are given for `CC1(C)S[C@@H]2[C@H](NC(=O)[C@H](N)c3ccccc3)C(=O)N2[C@H]1C(=O)O` [Ampicillin, ampicillin]?
**A.** MIC (C. diphtheriae): 16 µg/mL (≈ 45.8 µM); MIC (S. epidermidis ATCC14990): 0.3 µg/mL (≈ 0.859 µM); MIC (S. equinus ATCC15351): 16 µg/mL (≈ 45.8 µM); MIC [6]: 16 µg/mL (≈ 45.8 µM); MIC (C. acnes ATCC6919): 32 µg/mL (≈ 91.6 µM); MIC (M. catarrhalis PCM2340): 2.5 µg/mL (≈ 7.15 µM); MIC (B. subtilis ATCC6633): 0.4 µg/mL (≈ 1.14 µM)
